In article PMC6345825, “Crystal structure of the plant symporter STP10 illuminates sugar uptake mechanism in monosaccharide transporter superfamily” (Nature Communications, 2019):

Columns and labels:
[1] = target: T1, STP10 (Arabidopsis thaliana, UniProt Q9LT15); assay: [3H]-2-deoxy-D-glucose uptake in yeast EBY-WV4000; type: cell-based; details: pH 5.0; 30 °C; labelled compound
T1 construct: full length 514 residues; S. cerevisiae expression, C-terminal thrombin site and His10 tag, tag cut with thrombin for structure (model residues 21-507, monomer); STP10 gene subcloned for Xenopus oocyte and yeast EBY-WV4000 uptake
T1 sequence (Q9LT15 1-514): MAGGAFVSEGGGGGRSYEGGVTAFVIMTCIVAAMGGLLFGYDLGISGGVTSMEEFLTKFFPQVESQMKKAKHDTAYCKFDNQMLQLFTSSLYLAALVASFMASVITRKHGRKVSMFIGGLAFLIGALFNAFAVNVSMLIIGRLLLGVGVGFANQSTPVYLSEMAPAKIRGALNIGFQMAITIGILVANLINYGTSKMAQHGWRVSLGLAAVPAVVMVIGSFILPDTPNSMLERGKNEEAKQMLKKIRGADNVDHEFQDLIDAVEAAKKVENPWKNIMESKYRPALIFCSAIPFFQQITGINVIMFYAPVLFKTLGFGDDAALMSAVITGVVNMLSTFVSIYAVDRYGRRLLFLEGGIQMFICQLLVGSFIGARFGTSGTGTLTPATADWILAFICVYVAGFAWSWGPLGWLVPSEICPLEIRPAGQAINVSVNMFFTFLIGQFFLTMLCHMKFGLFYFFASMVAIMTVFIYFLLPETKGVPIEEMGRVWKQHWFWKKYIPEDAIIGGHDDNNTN

[2] = target: T1, STP10; assay: competition with [3H]-D-glucose uptake in yeast EBY-WV4000; type: cell-based; details: pH 5.0; 30 °C; 250 µM competitor against 10 µM D-glucose
[3] = target: T1, STP10; assay: X-ray crystal structure, […] Å; details: central binding site; outward occluded state; lipidic cubic phase, pH 4.5
[4] = target: T1, STP10; assay: isothermal titration calorimetry, purified protein, one-site model; details: pH 5.5; 20 °C; 0.03% DDM; read-out: apparent Kd

How did the “[3H]-2-deoxy-D-glucose uptake in yeast EBY-WV4000” value [1] turn out when `OC[C@H]1OC(O)C[C@@H](O)[C@@H]1O` (some centres unmarked) [2-deoxyglucose] was run?
The value was “The protein can transport the non-metabolized glucose analog 2-deoxyglucose”.

With `OC[C@H]1OC(O)[C@H](O)[C@@H](O)[C@H]1O` (some centres unmarked) [galactose] as the compound, how does the competition [2] read?
Its competition is “Competition assays using radioactively labeled glucose confirm galactose and mannose as potential substrates”.

Which results are given for `OC[C@H]1OC(O)[C@H](O)[C@@H](O)[C@@H]1O` (some centres unmarked) [glucose]?
X-ray crystal structure, 2.4 Å [3]: contains unambiguous density for glucose; Kd [4]: 3.2 µM

For `OC[C@H]1OC(O)[C@@H](O)[C@@H](O)[C@@H]1O` (some centres unmarked) [mannose], which competition [2] is on record?
Its competition is “Competition assays using radioactively labeled glucose confirm galactose and mannose as potential substrates”.
